Laboratory results from paper PMC7125926 (Antiviral Research, 2015).
“And” between values parts separate entries of the source, which are not always exact repeats. Equal values may be shown once. “Also recorded” adds a separate entry of the source. Where a name gives a salt, the structure may show the parent alone. Read-outs that look alike come from different tables or passages of the source.

Legend:
IP-10 = test: tissue or blood; assay type: cell-based, mouse
[1] = test system: PR8 (H1N1) influenza virus; assay type: cell-based
influenza virus [2] = conditions: mouse, cited from earlier work
[3] = MTT assay of drug toxicity in mouse lung slices; assay type: cell-based
influenza A virus = conditions: ref An et al., 2014; cited from earlier work
influenza virus [4] = assay type: in vivo, mice; conditions: Fig. S5
[5] = read-out: IP-10-EC50: 50% effective concentration determined by ELISA of IP-10
[6] = read-out: NA-EC50: 50% effective concentration determined by NA activity assay
[7] = Mus musculus, 48 h, read-out: IP-10-EC50: 50% effective concentration determined by ELISA of IP-10

Compound	effect on IP-10 levels in lung slices (in words) (IP-10)	EC50 (IP-10; [5]) [µM]	effect on virus replication / NA activity in lung slices (in words) [1]	In vivo: the protection effect of mice from lethal influenza infection (influenza virus [2])	CC50 at 48 h [3] [µM]	antiviral activity in MDCK cells (in words) (influenza A virus)	protection of mice from lethal doses of influenza virus infection (in words) (influenza virus [4])	other results
N#CC(=C(/N)Sc1ccccc1N)/C(C#N)=C(/N)Sc1ccccc1N [U0126]	dose dependently decrease	1.3	dose dependent inhibition; also recorded: dose dependently decrease NA levels	+				EC50 [1, 6]: 12 µM
CCCCC/C=C/C=C1/C(=O)C=C[C@@H]1C/C=C\CCCC(=O)O [15d-PGJ2, 15-deoxy-Δ^12,14-prostaglandin J2]	dose dependently decreased IP-10 levels	0.2	neither inhibited virus replication	+				inhibition of virus replication (influenza virus [2]; in vivo): does not inhibit virus replication; mice protected from death against lethal influenza infection (influenza virus [2]; in vivo): 79%
CCCC(C(=O)OCCN(CC)CC)(c1ccccc1)c1ccccc1 [Proadifen]	inhibited neither		inhibited neither		32.2	known antiviral activity	failed to protect mice	
CC(C)OC(=O)C(C)(C)Oc1ccc(C(=O)c2ccc(Cl)cc2)cc1 [Fenofibrate]	inhibited neither		inhibited neither		> 200	known antiviral activity	failed to protect mice	
C[S+]([O-])c1ccc(-c2nc(-c3ccncc3)c(-c3ccc(F)cc3)[nH]2)cc1 (centres unmarked) [SB203580]	dose dependently decreased IP-10 levels		neither inhibited virus replication	+	> 100			
CN(C)CCCOc1nn(Cc2ccccc2)c2ccccc12 [Benzydamine]	inhibited neither		inhibited neither		113	known antiviral activity	failed to protect mice	
CCN(CC)CCOC(=O)C(Cc1cccc2ccccc12)CC1CCCO1 (centres unmarked) [Nafronyl oxalate]	inhibited the inflammatory response		not showing any antiviral activity		122	known antiviral activity		EC50 (IP-10; [7]): 22.1 µM
Clc1ccccc1C(c1ccccc1)(c1ccccc1)n1ccnc1 [Clotrimazole]	inhibited neither		inhibited neither		16.3	known antiviral activity	failed to protect mice	
CC(C)=C1C/C=C(\C)CC/C=C(\C)CC1=O [Gemacrone]		17.6	efficiently inhibited virus replication	+				EC50 [1, 6]: 23.1 µM
CCN(CC)CCOC(=O)C1(C2CCCCC2)CCCCC1 [Dicyclomine]	inhibited neither							
O=C(O[C@@H]1Cc2c(O)cc(O)cc2O[C@@H]1c1cc(O)c(O)c(O)c1)c1cc(O)c(O)c(O)c1 [EGCG]	dose dependently decrease	3.3	dose dependently decrease NA levels	+				EC50 [1, 6]: 50.1 µM
NC(=O)c1ncn([C@@H]2O[C@H](CO)[C@@H](O)[C@H]2O)n1 [Ribavirin, ribavirin]			dose dependent inhibition; also recorded: efficiently inhibited virus replication		> 200			EC50 (IP-10; [7]): 21.8 µM; EC50 (IP-10; Mus musculus, 48 h, read-out: IP-10-EC50: 50% effective concentration determined by IP-10 inhibition): 21.8 µM; EC50 (IP-10; read-out: IP-10-EC50: 50% effective concentration determined by IP-10 inhibition): 17.8 µM and 20.6 µM and 14.2 µM; EC50 ([1]; read-out: NA-EC50: 50% effective concentration determined by NA inhibition): 25.4 µM and 28.3 µM and 17.7 µM
